Target: T1, PPARγ (Mus musculus, UniProt P37238)
T1 construct: GAL4 (yeast transcription factor, amino acids 1 to 147); expressed in transfected cells; host or cells: CV-1 cells (African green monkey kidney)
T1 sequence (P37238 174-475 isoform P37238-2): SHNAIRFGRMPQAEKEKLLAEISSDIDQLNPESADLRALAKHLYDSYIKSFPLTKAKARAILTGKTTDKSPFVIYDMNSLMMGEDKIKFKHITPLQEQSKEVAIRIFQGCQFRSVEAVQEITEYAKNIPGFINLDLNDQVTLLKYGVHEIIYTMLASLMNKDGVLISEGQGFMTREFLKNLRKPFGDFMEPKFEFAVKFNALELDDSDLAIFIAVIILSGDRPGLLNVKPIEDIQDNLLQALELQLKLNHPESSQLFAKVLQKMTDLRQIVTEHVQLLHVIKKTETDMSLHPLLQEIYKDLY
Assay: PPARγ ligand activity measurement (GAL4-mPPARγ chimera luciferase reporter assay in CV-1 cells)
Assay type: cell-based
Conditions: for Specific activity (PPARγ ligand activity relative to no-treatment control): CV-1 cells, 24 hours, n=4, 1.5 or above = having PPARγ ligand activity; for PPARγ ligand activity comparison with troglitazone: compared with troglitazone at 0.5 μM, compounds at the concentrations of Table 2
Procedure: CV-1 cells (male African green monkey kidney-derived cultured cells) were distributed into wells of a 96-well culture plate (6×10^3 cells/well) and cultured under conditions of 37° C. and 5% CO2 for 24 hours. The medium used was DMEM (Dulbecco's modified Eagle medium; GIBCO) containing 10% FBS (fetal bovine serum), 10 ml/L of penicillin-streptomycin solution (5,000 IU/ml and 5,000 μg/ml, respectively; GIBCO) and 37 mg/L of ascorbic acid (Wako Pure Chemical Industries). After rinsing with OPTI-MEM (GIBCO), the cells were transfected with pM-mPPARγ and 4×UASg-luc using Lipofectamine Plus (GIBCO). […] Each sample in the assay group was dissolved in dimethyl sulfoxide (DMSO), and DMSO was used in the no-treatment control group. The solution or DMSO was added to the medium at a level of 1/1000. After washing the cells with Ca- and Mg-containing phosphate buffered saline (PBS^+), LucLite (Packard) was added to each well, and the luciferase-due luminescence intensity was measured using Packard's TopCount microplate scintillation/luminescence counter. Using pM (plasmid deprived of the PPARγ ligand binding site gene) in lieu of pM-mPPARγ, measurements in a control group were carried out in the same manner as in the above assay group. For each sample, the ratio in mean luminescence intensity (n=4) between the assay group and control group (assay group/control group ratio) was calculated, and the specific activity relative to the no-treatment control group was regarded as the PPARγ ligand activity of the sample. When the specific activity was 1.5 or above, the sample was evaluated as having PPARγ ligand activity.

COc1c(/C=C/C(=O)c2cc(O)c(O)c(CC=C(C)C)c2)ccc(O)c1O [Compound 1, 3,4,3′,4′-tetrahydroxy-2-methoxy-5′-γ,γ-dimethylallylchalcone]
Specific activity (PPARγ ligand activity relative to no-treatment control) (10 μg/ml): 3.58
PPARγ ligand activity comparison with troglitazone: stronger in PPARγ ligand activity as compared with troglitazone

CC(C)=CCc1cc([C@@H]2CC(=O)c3ccc4c(c3O2)C=CC(C)(C)O4)ccc1O [Compound 2, shinflavanone]
Specific activity (PPARγ ligand activity relative to no-treatment control) (10 μg/ml): 3.62
PPARγ ligand activity comparison with troglitazone: stronger in PPARγ ligand activity as compared with troglitazone

COc1ccc(C2(O)COc3c(ccc4c3C=CC(C)(C)O4)C2=O)c(O)c1 (stereo not drawn) [Compound 3, 3,2′-dihydroxy-4′-methoxy-6″,6″-dimethylpyrano[2″,3″:7,8] isoflavanone]
Specific activity (PPARγ ligand activity relative to no-treatment control) (20 μg/ml): 1.90
PPARγ ligand activity comparison with troglitazone: stronger in PPARγ ligand activity as compared with troglitazone
